{"source": "patent US9057727B2", "about": "“Screening methods using G-protein coupled receptors and related compositions” (The General Hospital Corporation, priority 2007, dated 2015)", "key": {"[1]": {"biological_target": "T1, rat PTHR (Rattus norvegicus, UniProt P25961)", "T1 sequence (P25961 27-591)": "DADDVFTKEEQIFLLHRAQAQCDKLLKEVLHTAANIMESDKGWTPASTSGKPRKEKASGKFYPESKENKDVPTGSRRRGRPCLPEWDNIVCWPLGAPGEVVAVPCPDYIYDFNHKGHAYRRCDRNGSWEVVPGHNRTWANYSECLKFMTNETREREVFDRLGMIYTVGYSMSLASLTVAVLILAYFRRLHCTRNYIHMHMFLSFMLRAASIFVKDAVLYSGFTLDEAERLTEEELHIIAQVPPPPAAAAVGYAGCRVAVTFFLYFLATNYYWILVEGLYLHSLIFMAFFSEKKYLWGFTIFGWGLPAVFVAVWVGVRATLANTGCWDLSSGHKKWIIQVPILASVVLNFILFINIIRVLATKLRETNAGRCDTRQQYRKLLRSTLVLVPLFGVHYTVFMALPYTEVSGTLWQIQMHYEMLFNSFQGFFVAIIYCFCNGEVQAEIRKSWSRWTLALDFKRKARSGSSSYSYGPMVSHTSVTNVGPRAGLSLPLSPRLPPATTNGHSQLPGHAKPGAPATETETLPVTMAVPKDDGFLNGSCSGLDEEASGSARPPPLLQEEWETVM", "assay": "cAMP formation in HEK-293 cells transfected with rat PTHR", "type": "cell-based", "details": "versus M-PTH(1-28)", "description": "(§1) To impair PLC signaling, we replaced alanine at position 1 of M-PTH(1-28) with tryptophan, in accordance with findings of Bisello and colleagues (J Biol Chem 277:38524-30, 2002) showing that such bulky substitutions at this position selectively impair PLC signaling."}, "[2]": {"biological_target": "T1, rat PTHR", "assay": "IP3 formation in HEK-293 cells transfected with rat PTHR", "type": "cell-based", "details": "versus M-PTH(1-28)", "description": "as §1"}, "[3]": {"tested_on": "MC3T3-E1 cells", "assay": "Prolonged cAMP response after ligand wash-out in MC3T3-E1 cells", "type": "cell-based", "description": "as §1"}, "[4]": {"assay": "Plasma phosphate in mice (20 nmol/kg)", "type": "in vivo", "description": "as §1"}, "[5]": {"tested_on": "NaPi-IIa", "assay": "NaPi-IIa staining in renal PT cells of injected mice", "details": "mouse, in vivo", "description": "To help elucidate further the signaling mechanisms by which PTH ligands regulate renal phosphate transport, we developed a derivative of M-PTH(1-28) that is defective for PLC/PKC signaling, yet retains potent cAMP/PKA signaling activity. Such a peptide allows for study of the relative roles of the PKA and PKC signaling pathways in modulating the function and surface expression of the Pi transporters NaPi-IIa and NaPi-IIc in proximal tubule (PT) cells. The analog M-PTH(1-28) (M=Ala^1,Aib^3,Gln^10, Har^11,Trp^14,Arg^19), a potent agonist for cAMP and IP3 signaling pathways, induces, when injected into mice, prolonged hypophosphatemic and hypercalcemic effects.\nas §1"}, "[6]": {"tested_on": "NaPi-IIc", "assay": "NaPi-IIc immunostaining in renal PT cells of injected mice", "type": "in vivo", "details": "interval 4 to 6 h", "description": "as §1"}, "[7]": {"tested_on": "LLC-PK1 cells expressing NaPi-IIc transporter and the rat PTHR", "assay": "32P uptake in LLC-PK1 cells expressing NaPi-IIc transporter and rat PTHR", "type": "cell-based", "description": "as §1"}}, "data": [{"substance": "Trp^1-M-PTH(1-28)", "values": [{"measurement": "potency for stimulating cAMP formation, in words", "setting": "[1]", "result": "about as potent as M-PTH(1-28)"}, {"measurement": "fold less potent than parent peptide for stimulating IP3 formation", "setting": "[2]", "result": "at least 100 fold"}, {"measurement": "cAMP response after ligand wash-out, in words", "setting": "[3]", "result": "retained the capacity to produce a prolonged cAMP response"}, {"measurement": "time of maximal suppression of plasma phosphate", "setting": "[4]", "result": 2, "unit": "h"}, {"measurement": "time of recovery of plasma phosphate to vehicle control levels", "setting": "[4]", "result": 6, "unit": "h"}, {"measurement": "apical and cytoplasmic NaPi-IIa staining, in words", "setting": "[5]", "result": "remained reduced for at least six hours"}, {"measurement": "NaPi-IIc immunostaining, in words", "setting": "[6]", "result": "unchanged"}, {"measurement": "^32P uptake, in words", "setting": "[7]", "result": "failed to inhibit"}]}]}
